From patent publication US20210244698A1, “DIFFUSION ENHANCING COMPOUNDS AND THEIR USE WITH THROMBECTOMY AND EMBOLECTOMY AND OTHER VASCULAR DISEASE PROCEDURES” (DIFFUSION PHARMACEUTICALS LLC, priority 2018, published 2021)

What was measured:
[1] = Stability of TSC in formulation as a function of pH; type: physicochemical
Method: Mannitol can be used to adjust osmolality and its concentration varies depending on the concentration of other ingredients. The glycine is held constant. […] The use of glycine is compatible with lyophilization. Alternatively, the TSC and cyclodextrin is formulated using a 50 mM bicarbonate buffer in place of the glycine.

[2] = Absorption of TSC into the blood stream after intramuscular injection with gamma cyclodextrin; type: in vivo; settings: rats
Excerpt: (§1) The use of gamma-cyclodextrin with TSC increases the solubility of TSC in water by 3-7 times. […] The solutions need not be equal-molar. The incorporation of the gamma cyclodextrin also allows for TSC to be absorbed into the blood stream when injected intramuscularly.

[3] = Solubility of TSC in water / aqueous solution with cyclodextrin; type: physicochemical
Excerpt: as §1
A trans carotenoid such as TSC can be formulated with a cyclodextrin as noted above and a non-metabolized sugar such as mannitol (e.g. d-mannitol to adjust the osmotic pressure to be the same as that of blood). Solutions containing over 20 mg TSC/ml of solution can be made this way. This solution can be added to isotonic saline or to other isotonic solutions in order to dilute it and still maintain the proper osmolality.

stability versus pH [1]: more stable at higher pHs | absorption into the blood stream when injected intramuscularly [2]: Absorption is quick | TSC content of solution ([3]; formulated with a cyclodextrin and mannitol): over 20 mg TSC/ml of solution
Structure (SMILES): CC(/C=C/C=C(\C)C(=O)[O-])=C\C=C\C=C(C)\C=C\C=C(/C)C(=O)[O-].[Na+].[Na+] [TSC, trans sodium crocetinate]
TSC content of aqueous solution ([3]; TSC and gamma-cyclodextrin, aqueous solution): ≤ 44 milligrams of TSC per ml of solution
